Measurements taken from ChEMBL document CHEMBL1122626, “(+/-)-4-Aryl-4,5-dihydro-3H-1,3-benzodiazepines. 3. 2-Phenyl and 2-amino analogues as potential antihypertensive agents” (1984).

Columns and labels:
Rattus norvegicus [1] = test: Antihypertensive activity was evaluated in spontaneously hypertensive rat model with base line systolic pressure of 189 mmHg by the indirect tail-cuff method at an oral screening dose of 50 mg/kg.; assay type: functional, Blood
Rattus norvegicus [2] = test: Antihypertensive activity was evaluated in spontaneously hypertensive rat model with base line systolic pressure of 174 mmHg by the indirect tail-cuff method at an oral screening dose of 50 mg/Kg; assay type: functional, Blood

| Structure (SMILES) | BP (Rattus norvegicus [1]) | BP (Rattus norvegicus [2]) |
| --- | --- | --- |
| CN1C(c2ccccc2)=Nc2ccccc2CC1c1ccccc1.Cl (configuration not stated) | -56 mmHg |  |
| N=C(N)NCCN1CCCCCCC1 [GUANETHIDINE] |  | -20 mmHg |
